Tests used:
[1] = system: Hepatotoxicity; test: Literature-mined compound from Fourches et al multi-species drug-induced liver injury (DILI) dataset, effect in non-rodents
[2] = system: Hepatotoxicity; test: Literature-mined compound from Fourches et al multi-species drug-induced liver injury (DILI) dataset, effect in humans; conditions: human
[3] = system: Hepatotoxicity; test: Literature-mined compound from Fourches et al multi-species drug-induced liver injury (DILI) dataset, effect in rodents; conditions: rodentia

| Compound | Hepatotoxicity [1] | Hepatotoxicity [2] | Hepatotoxicity [3] | Hepatotoxicity ([1]; Liver) | Hepatotoxicity ([2]; Liver) | Hepatotoxicity ([3]; Liver) |
| --- | --- | --- | --- | --- | --- | --- |
| CCOC(=O)[C@H](CCc1ccccc1)N[C@@H](C)C(=O)N1[C@H](C(=O)O)C[C@H]2CCCC[C@@H]21 [TRANDOLAPRIL] | no drug-induced liver injury reported | drug-induced liver injury reported | no drug-induced liver injury reported |  |  |  |
| N[C@@H]1C[C@H]1c1ccccc1.N[C@H]1C[C@@H]1c1ccccc1 [TRANYLCYPROMINE] |  |  |  | drug-induced liver injury reported | drug-induced liver injury reported | drug-induced liver injury reported |
| O=c1n(CCCN2CCN(c3cccc(Cl)c3)CC2)nc2ccccn12 [TRAZODONE] | no drug-induced liver injury reported | drug-induced liver injury reported | no drug-induced liver injury reported |  |  |  |
| CC1=C(/C=C/C(C)=C/C=C/C(C)=C/C(=O)O)C(C)(C)CCC1 [TRETINOIN] | no drug-induced liver injury reported | drug-induced liver injury reported | drug-induced liver injury reported |  |  |  |
| CC1(C)O[C@@H]2C[C@H]3[C@@H]4CCC5=CC(=O)C=C[C@]5(C)[C@@]4(F)[C@@H](O)C[C@]3(C)[C@]2(C(=O)CO)O1 [TRIAMCINOLONE ACETONIDE] | no drug-induced liver injury reported | no drug-induced liver injury reported | drug-induced liver injury reported |  |  |  |
| C[C@]12C=CC(=O)C=C1CC[C@H]1[C@@H]3C[C@@H](O)[C@](O)(C(=O)CO)[C@@]3(C)C[C@H](O)[C@@]12F [TRIAMCINOLONE] | no drug-induced liver injury reported | no drug-induced liver injury reported | drug-induced liver injury reported |  |  |  |
| COP(=O)(OC)C(O)C(Cl)(Cl)Cl (stereo unspecified) [TRICHLORFON] | no drug-induced liver injury reported | no drug-induced liver injury reported | drug-induced liver injury reported |  |  |  |
| O=C(O)C(Cl)(Cl)Cl [TRICHLOROACETIC ACID] | no drug-induced liver injury reported | no drug-induced liver injury reported | drug-induced liver injury reported |  |  |  |
| ClC=C(Cl)Cl [TRICHLOROETHYLENE] | no drug-induced liver injury reported | drug-induced liver injury reported | drug-induced liver injury reported |  |  |  |
| Oc1cc(Cl)ccc1Oc1ccc(Cl)cc1Cl [TRICLOSAN] | no drug-induced liver injury reported | no drug-induced liver injury reported | drug-induced liver injury reported |  |  |  |
| COc1ccc(CN2CCNCC2)c(OC)c1OC [TRIMETAZIDINE] | no drug-induced liver injury reported | drug-induced liver injury reported | drug-induced liver injury reported |  |  |  |
| CN1C(=O)OC(C)(C)C1=O [TRIMETHADIONE] | no drug-induced liver injury reported | drug-induced liver injury reported | drug-induced liver injury reported |  |  |  |
| CC1(C)C2CCC1(CS(=O)(=O)[O-])C(=O)C2.O=C1N(Cc2ccccc2)C2C[S+]3CCCC3C2N1Cc1ccccc1 (stereo unspecified) [TRIMETHAPHAN CAMSYLATE] | drug-induced liver injury reported | no drug-induced liver injury reported | no drug-induced liver injury reported |  |  |  |
| COc1cc(Cc2cnc(N)nc2N)cc(OC)c1OC [TRIMETHOPRIM] |  |  |  | no drug-induced liver injury reported | drug-induced liver injury reported | drug-induced liver injury reported |
| Cc1c(C)c2c(c(C)c1O)CCC(C)(COc1ccc(CC3SC(=O)NC3=O)cc1)O2 (stereo unspecified) [TROGLITAZONE] | drug-induced liver injury reported | drug-induced liver injury reported | drug-induced liver injury reported |  |  |  |
| CO[C@H]1C[C@H](O[C@H]2[C@H](C)[C@@H](O[C@@H]3O[C@H](C)C[C@H](N(C)C)[C@H]3OC(C)=O)[C@@H](C)C[C@@]3(CO3)C(=O)[C@H](C)[C@@H](OC(C)=O)[C@@H](C)[C@@H](C)OC(=O)[C@@H]2C)O[C@@H](C)[C@@H]1OC(C)=O [TROLEANDOMYCIN] | drug-induced liver injury reported | drug-induced liver injury reported | drug-induced liver injury reported |  |  |  |

| Compound | Hepatotoxicity [1] | Hepatotoxicity [2] | Hepatotoxicity [3] | Hepatotoxicity ([1]; Liver) | Hepatotoxicity ([2]; Liver) | Hepatotoxicity ([3]; Liver) |
| --- | --- | --- | --- | --- | --- | --- |
| Cc1cc(-c2ccc(/N=N/c3c(S(=O)(=O)[O-])cc4cc(S(=O)(=O)[O-])cc(N)c4c3O)c(C)c2)ccc1/N=N/c1c(S(=O)(=O)[O-])cc2cc(S(=O)(=O)[O-])cc(N)c2c1O.[Na+].[Na+].[Na+].[Na+] [TRYPAN BLUE] | no drug-induced liver injury reported | no drug-induced liver injury reported | drug-induced liver injury reported |  |  |  |
| N[C@@H](Cc1c[nH]c2ccccc12)C(=O)O [TRYPTOPHAN] | no drug-induced liver injury reported | no drug-induced liver injury reported | drug-induced liver injury reported |  |  |  |
| COC1=C(OC)C(=O)C(C/C=C(\C)CC/C=C(\C)CC/C=C(\C)CC/C=C(\C)CC/C=C(\C)CC/C=C(\C)CC/C=C(\C)CC/C=C(\C)CC/C=C(\C)CCC=C(C)C)=C(C)C1=O [UBIDECARENONE] | no drug-induced liver injury reported | no drug-induced liver injury reported | drug-induced liver injury reported |  |  |  |
| O=c1cc[nH]c(=O)[nH]1 [URACIL] | no drug-induced liver injury reported | drug-induced liver injury reported | drug-induced liver injury reported |  |  |  |
| NC(N)=O [UREA] | no drug-induced liver injury reported | no drug-induced liver injury reported | drug-induced liver injury reported |  |  |  |
| O=c1ccn([C@@H]2O[C@H](CO)[C@@H](O)[C@H]2O)c(=O)[nH]1 [URIDINE] | no drug-induced liver injury reported | drug-induced liver injury reported | drug-induced liver injury reported |  |  |  |
| C[C@H](CCC(=O)O)[C@H]1CC[C@H]2[C@@H]3[C@@H](O)C[C@@H]4C[C@H](O)CC[C@]4(C)[C@H]3CC[C@]12C [URSODIOL] | drug-induced liver injury reported | drug-induced liver injury reported | drug-induced liver injury reported |  |  |  |
| C/C=C/C[C@@H](C)C(=O)[C@H]1C(=O)N[C@@H](C(C)C)C(=O)N(C)CC(=O)N(C)[C@@H](CC(C)C)C(=O)N[C@@H](C(C)C)C(=O)N(C)[C@@H](CC(C)C)C(=O)N[C@@H](C)C(=O)N[C@H](C)C(=O)N(C)[C@@H](CC(C)C)C(=O)N(C)[C@@H](CC(C)C)C(=O)N(C)[C@@H](C(C)C)C(=O)N1C [VALSPODAR] | no drug-induced liver injury reported | drug-induced liver injury reported | drug-induced liver injury reported |  |  |  |
| CN[C@H](CC(C)C)C(=O)N[C@H]1C(=O)N[C@@H](CC(N)=O)C(=O)N[C@H]2C(=O)N[C@H]3C(=O)N[C@H](C(=O)N[C@H](C(=O)O)c4cc(O)cc(O)c4-c4cc3ccc4O)[C@H](O)c3ccc(c(Cl)c3)Oc3cc2cc(c3O[C@@H]2O[C@H](CO)[C@@H](O)[C@H](O)[C@H]2O[C@H]2C[C@](C)(N)[C@H](O)[C@H](C)O2)Oc2ccc(cc2Cl)[C@H]1O [VANCOMYCIN] | no drug-induced liver injury reported | drug-induced liver injury reported | drug-induced liver injury reported |  |  |  |
| COc1cc2c(Nc3ccc(Br)cc3F)ncnc2cc1OCC1CCN(C)CC1 [VANDETANIB] | no drug-induced liver injury reported | drug-induced liver injury reported | no drug-induced liver injury reported |  |  |  |
| COc1ccc(C(CN(C)C)C2(O)CCCCC2)cc1 (stereo unspecified) [VENLAFAXINE] | no drug-induced liver injury reported | drug-induced liver injury reported | no drug-induced liver injury reported |  |  |  |
| COc1ccc(C(=O)N2CCN(c3ccc4c(c3)CCC(=O)N4)CC2)cc1OC [VESNARINONE] | no drug-induced liver injury reported | drug-induced liver injury reported | drug-induced liver injury reported |  |  |  |
| Nc1ncnc2c1ncn2[C@@H]1O[C@H](CO)[C@@H](O)[C@@H]1O [VIDARABINE] | no drug-induced liver injury reported | drug-induced liver injury reported | drug-induced liver injury reported |  |  |  |
| C=CC(N)CCC(=O)O (stereo unspecified) [VIGABATRIN] | no drug-induced liver injury reported | no drug-induced liver injury reported | drug-induced liver injury reported |  |  |  |
| CC[C@]1(O)C[C@@H]2CN(CCc3c([nH]c4ccccc34)[C@@](C(=O)OC)(c3cc4c(cc3OC)N(C)[C@H]3[C@@](O)(C(=O)OC)[C@H](OC(C)=O)[C@]5(CC)C=CCN6CC[C@]43[C@@H]65)C2)C1 [VINBLASTINE] | no drug-induced liver injury reported | drug-induced liver injury reported | drug-induced liver injury reported |  |  |  |
| CC[C@]1(O)C[C@H]2CN(CCc3c([nH]c4ccccc34)[C@@](C(=O)OC)(c3cc4c(cc3OC)N(C=O)[C@H]3[C@@](O)(C(=O)OC)[C@H](OC(C)=O)[C@]5(CC)C=CCN6CC[C@]43[C@@H]65)C2)C1 [VINCRISTINE] | drug-induced liver injury reported | drug-induced liver injury reported | drug-induced liver injury reported |  |  |  |
